We go through four compounds from ChEMBL document CHEMBL1141842, “Amathaspiramides A-F, novel brominated alkaloids from the marine bryozoan amathia wilsoni” (J Nat Prod, 1999).

Active and inactive are the calls of the source. The calls are words filed in the database; no cut-off is given here.

For one assay, the system named is P388. Nature of the assay: Cytotoxicity against mouse P388 cells. The format is functional, cell-based.
The test system of the next assay is Poliovirus 1. Kind of assay: Antiviral activity against Human poliovirus 1 at 40 ug/well. Format: functional, organism-based.
Another assay has as its system Bacillus subtilis. Nature of the assay: Antibacterial activity against Bacillus subtilis at 60 ug/disk. The following applies: for zone of inhibition at 60 µg/disc: read-out: IZ. The format is functional.
For assay [1], the system named is Trichophyton mentagrophytes. Kind of assay: Antifungal activity against Trichophyton mentagrophytes at 60 ug/disk. Conditions: for zone of inhibition at 60 µg/disc: read-out: IZ. The format is functional.

Regarding `COc1cc([C@H]2[C@@H](O)N(C)C(=O)[C@]23CCC(=O)N3C)c(Br)cc1Br` [AMATHASPIRAMIDE B], the half-inhibitory concentration (IC50) (usually the concentration that inhibits the measured activity by half) with P388 was greater than 12.5 µg/mL. For the same compound, the result (with Poliovirus 1; in the assay on Bacillus subtilis; in assay [1]) was inactive.

In the assay with P388, `COc1cc([C@H]2[C@@H](O)N(C)C(=O)[C@]23CCCN3C)c(Br)cc1Br` [AMATHASPIRAMIDE A] showed an IC50 greater than 12.5 µg/mL. Besides, the zone of inhibition at 60 µg/disc (with Bacillus subtilis; in assay [1]) was 1 mm each time.

As to `COc1cc([C@H]2[C@@H](O)N(C)C(=O)[C@]23CCCN3)c(Br)cc1Br` [AMATHASPIRAMIDE C], in the assay on P388, the IC50 was greater than 12.5 µg/mL. Further, the outcome (in the assay on Poliovirus 1; with Bacillus subtilis; in assay [1]) was inactive.

`COc1cc([C@H]2[C@@H](O)N(C)C(=O)[C@]23CCC=N3)c(Br)cc1Br` [AMATHASPIRAMIDE E] came in with an IC50 with P388 greater than 12.5 µg/mL. For the same compound, the result with Poliovirus 1 was Active. Besides, the zone of inhibition at 60 µg/disc (in the assay with Bacillus subtilis; in assay [1]) was 1 mm each time.
